Structures can show the parent of a compound that is named as a salt. Where two headings read alike, the source gives them in different places.
Biological target: T1, Bradykinin receptor (Cavia porcellus, UniProt O70526)
T1 construct: The ileum was removed and homogenized in buffer; from tissue; host or cells: guinea pig ileum, crude membrane suspension
T1 sequence (O70526 1-372): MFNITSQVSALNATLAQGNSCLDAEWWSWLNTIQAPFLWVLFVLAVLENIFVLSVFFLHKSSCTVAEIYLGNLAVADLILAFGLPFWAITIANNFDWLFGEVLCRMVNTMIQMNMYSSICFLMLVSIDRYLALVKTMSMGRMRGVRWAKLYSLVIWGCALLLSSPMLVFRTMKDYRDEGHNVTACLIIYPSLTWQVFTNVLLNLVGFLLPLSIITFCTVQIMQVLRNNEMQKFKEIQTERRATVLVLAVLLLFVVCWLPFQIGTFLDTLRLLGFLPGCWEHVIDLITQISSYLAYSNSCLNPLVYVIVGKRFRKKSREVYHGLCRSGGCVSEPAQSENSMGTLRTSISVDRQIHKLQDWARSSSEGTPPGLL
Assay: ^3H-Bradykinin receptor binding (crude guinea pig ileum membrane)
Set-up: species or system guinea pigs
Conditions: for inhibition at 10 µM: read-out: Inhibition % of ^3H-Bradykinin binding (concentration : 1 x 10^-5M); for Inhibition % of ^3H-Bradykinin binding (concentration : 1 x 10^-5M): 10 µM
Experimental: (a) Crude ileum membrane preparation
Male Hartly strain guinea pigs were sacrificed by decapitation. The ileum was removed and homogenized in buffer (50 mM trimethylaminoethanesulfonic acid (TES), 1 mM 1,10-phenanthroline pH 6.8). The homogenate was centrifuged (1000 xg, 20 minutes) to remove tissue clumps and the supernatant was centrifuges (100,000 xg, 60 minutes) to yield a pellet. The pellet was resuspended in buffer (50 mM TES, 1 mM 1,10-phenanthroline, 140 mg/ℓ bacitracin, 1 mM dithiothreiol, 0.1 % bovine serum albumin pH 6.8) and homogenized with a glass-teflon homogenizer to yield suspension which was referred to as crude membrane suspension. The obtained membrane suspension was stored at -80°C until use.
(b) ^3H-Bradykinin binding to the membrane
The frozen crude membrane suspension was thawed. In binding assays, ^3H-Bradykinin (0.06 nM) and drug (1 x 10^-5M) were incubated with 50 µl of the membrane suspension at room temperature for 60 minutes in a final volume of 250 µl. Separation of receptor-bound from free ^3H-Bradykinin is achieved by immediate filtration under vacuum and washed three times with 5 ml of ice-cold buffer (50 mM Tris-HCl pH 7.5). Non-specific binding was defined as binding in the presence of 0.1 µM Bradykinin. The radioactivity retained on rinsed filters was determined by a liquid-scintillation counter.

[1] = drug 1 x 10^-5M, ^3H-Bradykinin 0.06 nM, crude ileum membrane suspension, room temperature for 60 minutes

Compound	inhibition at 10 µM [1]	also measured
Cc1nc2c(OCc3c(Cl)ccc(N(C)C(=O)CNC(=O)Oc4ccc([N+](=O)[O-])cc4)c3Cl)cccn2c1Br [40-(21), 3-Bromo-8-[2,6-dichloro-3-[N-(4-nitrophenoxycarbonylglycyl)-N-methylamino]benzyloxy]-2-methylimidazo[1,2-a]pyridine]	–	inhibition at 10 µM: 97%
CC(=O)N(C)c1ccc(Cl)c(COc2cccn3c(Br)c(C)nc23)c1Cl [61-(1), 3-Bromo-8-[2,6-dichloro-3-(N-acetyl-N-methylamino)benzyloxy]-2-methylimidazo[1,2-a]pyridine hydrochloride]	95%	–
CC(=O)NCC(=O)N(C)c1ccc(Cl)c(COc2cccn3c(Br)c(C)nc23)c1Cl [61-(5), 8-[3-[N-(Acetylglycyl)-N-methylamino]-2,6-dichlorobenzyloxy]-3-bromo-2-methylimidazo[1,2-a]pyridine hydrochloride]	99%	–
CCCC(=O)NCC(=O)N(C)c1ccc(Cl)c(COc2cccn3c(Br)c(C)nc23)c1Cl [61-(7), 3-Bromo-8-[3-[N-(butyrylglycyl)-N-methylamino]-2,6-dichlorobenzyloxy]-2-methylimidazo[1,2-a]pyridine hydrochloride]	100%	–
Cc1nc2c(OCc3c(Cl)ccc(N(C)C(=O)CNC(=O)c4ccccc4)c3Cl)cccn2c1Br [61-(11), 8-[3-[N-(Benzoylglycyl)-N-methylamino]-2,6-dichlorobenzyloxy]-3-bromo-2-methylimidazo[1,2-a]pyridine hydrochloride]	98%	–
Cc1nc2c(OCc3c(Cl)ccc(N(C)C(=O)CNC(=O)Cc4ccccc4)c3Cl)cccn2c1Br [61-(13), 3-Bromo-8-[2,6-dichloro-3-[N-(phenylacetylglycyl)-N-methylamino]benzyloxy]-2-methylimidazo[1,2-a]pyridine hydrochloride]	98%	–
COCC(=O)NCC(=O)CC(=O)N(C)c1ccc(Cl)c(COc2cccn3c(Br)c(C)nc23)c1Cl [61-(16), 3-Bromo-8-[2,6-dichloro-3-[N-(methoxyacetylglycyl)acetyl-N-methylamino]benzyloxy]-2-methylimidazo[1,2-a]pyridine hydrochloride]	100%	–
CC(=O)NCC(=O)NCC(=O)N(C)c1ccc(Cl)c(COc2cccn3c(Br)c(C)nc23)c1Cl [61-(18), 8-[3-[N-(Acetylglycylglycyl)-N-methylamino]-2,6-dichlorobenzyloxy]-3-bromo-2-methylimidazo[1,2-a]pyridine hydrochloride]	97%	–
Cc1nc2c(OCc3c(Cl)ccc(N(C)C(=O)CNC(C)C)c3Cl)cccn2c1Br [61-(23), 3-Bromo-8-[2,6-dichloro-3-[N-(isopropylglycyl)-N-methylamino]benzyloxy]-2-methylimidazo[1,2-a]pyridine dihydrochloride]	100%	–
CCNC(=O)NCC(=O)N(C)c1ccc(Cl)c(COc2cccn3c(Br)c(C)nc23)c1Cl [61-(28), 3-Bromo-8-[2,6-dichloro-3-[N-(N'-ethylureidoacetyl)-N-methylamino]benzyloxy]-2-methylimidazo[1,2-a]pyridine hydrochloride]	99%	–
Cc1nc2c(OCc3c(Cl)ccc(N(C)C(=O)CNC(=O)CN(C)C)c3Cl)cccn2c1Br [61-(41), 3-Bromo-8-[2,6-dichloro-3-[N-[(N,N-dimethylglycyl)glycyl]-N-methylamino]benzyloxy]-2-methylimidazo[1,2-a]pyridine dihydrochloride]	100%	–
CCCNC(=O)NCC(=O)N(C)c1ccc(Cl)c(COc2cccn3c(Br)c(C)nc23)c1Cl.Cl [61-(51), 3-Bromo-8-[2,6-dichloro-3-[N-(N'-n-propylureidoacetyl)-N-methylamino]benzyloxy]-2-methylimidazo[1,2-a]pyridine hydrochloride]	–	Inhibition % of ^3H-Bradykinin binding (concentration : 1 x 10^-5M) [1]: 100%
Cc1nc2c(OCc3c(Cl)ccc(N(C)C(=O)CNC(=O)Nc4cccnc4)c3Cl)cccn2c1Br.Cl.Cl [61-(54), 3-Bromo-8-[2,6-dichloro-3-[N-[N'-(3-pyridyl)ureidoacetyl]-N-methylamino]benzyloxy]-2-methylimidazo[1,2-a]pyridine dihydrochloride]	–	Inhibition % of ^3H-Bradykinin binding (concentration : 1 x 10^-5M) [1]: 100%
Cc1nc2c(OCc3c(Cl)ccc(N(C)C(=O)CNC(=S)Nc4ccccc4)c3Cl)cccn2c1Cl [Example 47, 3-Chloro-8-[2,6-dichloro-3-[N-(N'-phenylthioureidoacetyl)-N-methylamino]benzyloxy]-2-methylimidazo[1,2-a]pyridine]	100%	–
Cc1nc2c(OCc3c(Cl)ccc(N(C)C(=O)CNC(=O)[C@H]4CCCN4)c3Cl)cccn2c1Br [Example 49, 3-Bromo-8-[2,6-dichloro-3-[N-(D-prolylglycyl)-N-methylamino]benzyloxy]-2-methylimidazo[1,2-a]pyridine dihydrochloride]	100%	–
Cc1nc2c(OCc3c(Cl)ccc([N+](=O)[O-])c3Cl)cccn2c1Br [Example 60, 3-bromo-8-(2,6-dichloro-3-nitrobenzyloxy)-2-methylimidazo[1,2-a]pyridine hydrochloride]	100%	–
